Experiments:
[1] = tested on: subcutaneous gliomas (rat C6 glioma cells); test: Progression of established subcutaneous C6 gliomas in rats; assay type: in vivo; details: i.p. 100 mg/kg/day for 10 days; for average size (volume) of subcutaneous gliomas: treatment started 5 days after implantation
Method: Rat C6 glioma cells were cultured as previously described (Cuevas P et al. Neurol Res, 2005). The C6 cells cultured to confluence in 75 cm^2 flasks were removed and implanted under the abdominal skin in anesthetized rats. The existence of a tumor in the implantation area was observed five days after the implantation of the tumor cells. Only the rats in which the existence of a tumor was observed were randomly assigned to be treated with daily intraperitoneal injections of 2,5-dihydroxybenzene sulfonate (DHBS; 100 mg/kg/day), 2,5-diacetoxybenzene sulfonate (DABS; 100 mg/kg/day) or the carrier (0.9% NaCl). After 10 days of treatment, the subcutaneous gliomas were removed and their volume was calculated according to the formula V=4/3π·(L/2)·(A/2)^2 (in mm^3) where L is the larger diameter and A is the smaller diameter, both expressed in mm.

[2] = biological target: T1, fibroblast growth factor-1 (FGF-1) (Homo sapiens, UniProt P05230); test: Mitogenesis induced by FGF-1 in quiescent Balb/c 3T3 fibroblast cultures; assay type: cell-based; details: quiescent Balb/c 3T3 fibroblasts
Method: The evaluated compounds were used in the form of potassium salt, except in the first case which used calcium salt. The experiments were carried out as described in Fernandez-Tornero C et al. J Biol Chem, 2003.

[3] = tested on: rat glioma C6 cells; test: Rat glioma C6 cell proliferation (crystal violet staining); assay type: cell-based; details: 48 h
Method: The cell line used was rat glioma C6 cells. The cells were cultured as previously described (Cuevas P et al. Neurol Res, 2005). The cells were cultured as adherent cells in Dulbecco's modified Eagle's medium, supplemented with 7.5% (v/v) of fetal bovine serum, 10 μg/ml of streptomycin and 10 units/ml of penicillin. The tumor cells were seeded in 24-well plates at a density of 10,000 cells/well, and were incubated at 37° C. in a humidified chamber with 5% CO2. Once adhered, the cells were treated or not (controls) with 2,5-dihydroxybenzoate at 100, 200, 500 or 1000 μM and they were allowed to proliferate for 48 h. After this time the glioma cell proliferation was evaluated by means of staining the fixed cells with crystal violet. The number of cells is proportional to the amount of retained dye, which was spectrophotometrically determined by measuring the absorbance at 595 nm once the dye was extracted from the cells.
(§1) The cell line used was the C6 cell line and the experiment was carried out as described in Example 2. Once adhered, the cells were treated or not (controls) with increasing concentrations of 2,5-DHC (10, 25, 50 and 100 μM) and they were allowed to proliferate for 48 h. After this time the glioma cell proliferation was evaluated by means of staining the fixed cells with crystal violet. The number of cells is proportional to the amount of retained dye, which was determined spectrophotometrically by measuring absorbance at 595 nm once the dye was extracted from the cells.
as §1, with “examples 2 and 3.” for “Example 2.”, “(5A-2HBS) (500 μM) or (2A-5HBS) (500” for “increasing concentrations of 2,5-DHC (10, 25, 50 and 100”, “measuring the” for “measuring”

[4] = biological target: T1, fibroblast growth factor-1 (FGF-1); test: Crystal diffraction of complexes with FGF-1; details: co-crystal, electron density contoured at 1σ; acetoxyl groups conserved on binding
Method: Based on the crystal diffraction of the FGF-1:2-acetoxy-5-hydroxybenzene sulfonic acid, FGF-1:5-acetoxy-2-hydroxybenzene sulfonic acid and FGF-1:2,5-diacetoxybenzene sulfonic acid complexes, the structures of the complexes were calculated and represented. FIGS. 13, 14 and 15, which show the surface of the dyed protein according to its electrostatic potential (light grey, negative charge; dark grey, positive charge; white, regions with no charge), show the manner in which 2-acetoxy-5-hydroxybenzene sulfonic acid, 5-acetoxy-2-hydroxybenzene sulfonic acid and 2,5-diacetoxybenzene sulfonic acid interact, respectively, with FGF-1.

[5] = tested on: tumor cells of subcutaneous gliomas; test: Apoptosis in sections of established subcutaneous gliomas in rats; assay type: in vivo; details: 100 mg/kg/day i.p. for 10 days
Text: Tumor cells elude the programmed cell death process or apoptosis that normal cells experience. Apoptosis induction in tumor cells is one way to confront the development of a tumor. To evaluate the effect of potassium 2,5-dihydroxybenzene sulfonate […] on tumor cell apoptosis, 6 μm thick sections of the subcutaneous gliomas described in example 4 were made. The sections were stained with hematoxylin and eosin and observed at a magnification of 313 times using immersion oil. In these conditions, cell apoptosis is shown by the existence of apoptotic bodies appearing as strongly chromogenic granules in the cell nucleus which is frequently fragmented.

[6] = tested on: human prostate cancer PC-3 cells; test: Subcutaneous PC-3 prostate tumor implantation model in athymic mice; assay type: in vivo, athymic mice (Nu/Nu); details: 100 mg/kg daily i.p. for 15 days
Method: 5×10^6 human prostate cancer PC-3 cells were subcutaneously injected in male athymic mice (Nu/Nu) of 6-8 weeks of age and weighing 20-26 g. Ten days after the implantation of the tumor cells, the mice were randomly split into two groups: one of them received a daily injection of potassium 2,5-diacetoxybenzene sulfonate (DABS) by intraperitoneal route at a dose of 100 mg/kg dissolved in saline (0.9% NaCl) whereas the other group received a daily injection of carrier (saline). The treatments were administered for 15 days. The volumes of the tumors induced by the implantation of PC-3 cells were measured through the skin on alternating days using a Vernier caliper. The volume was calculated using the formula V=(D×2d)/2, where D is the larger diameter in mm, d is the smaller diameter in mm and V is the volume in mm3. At the end of treatment, the mice were sacrificed and the tumors were weighed.

[7] = tested on: bFGF-induced fibrosis; test: bFGF-induced fibrosis around subcutaneously implanted gelatin sponges in rats; assay type: in vivo, Sprague-Dawley rats; details: 100 μM in gelatin sponge with bFGF and heparin, subcutaneous, 7 days
Method: Sterile gelatin sponges (1 mm^3; Curaspon Dental, Clinimed Holding, Zwanenburg, The Netherlands) were subcutaneously implanted in the dorsal region of the neck in Sprague-Dawley rats after the induction of intraperitoneal anesthesia. The animals were split into two groups: group A, the sponges were moistened with 200 μl of saline solution which contained 25 μg/ml of heparin and 10 μg/ml of basic FGF (bFGF); group B, the sponges were moistened in the same solution as in group A, but which solution further contained 2,5-dihydroxybenzoate (100 μM). After 7 days, the sponges and the surrounding subcutaneous fat were removed and histologically analyzed.

T1 sequence (P05230 whole entry, species assumed): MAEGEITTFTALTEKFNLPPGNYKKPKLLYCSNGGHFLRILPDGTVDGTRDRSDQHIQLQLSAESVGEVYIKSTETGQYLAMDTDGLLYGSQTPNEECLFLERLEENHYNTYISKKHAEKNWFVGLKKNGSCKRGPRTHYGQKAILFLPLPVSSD

Compound	average size (volume) of subcutaneous gliomas [1]	mitogenesis induced by FGF-1 [2]	rat glioma cell proliferation ([3]; 500 μM)	binding site on FGF-1 in the crystal complex [4]	other results
O=S(=O)([O-])c1cc(O)ccc1O.[K+] [DHBS, potassium 2,5-dihydroxybenzene sulfonate, reference compound]	less than that of the rats treated with carrier	inhibition of the mitogenesis	–	–	–
CC(=O)Oc1ccc(O)c(S(=O)(=O)[O-])c1.[K+] [5A-2HBS, potassium 5-acetoxy-2-hydroxybenzene sulfonate]	–	inhibition of mitogenesis	caused the inhibition of rat glioma cell proliferation	occupy a site that is very close to the one that has been described occupied by 2,5-dihydroxybenzene sulfonic acid	–
CC(=O)Oc1ccc(OC(C)=O)c(S(=O)(=O)[O-])c1.[K+] [DABS, potassium 2,5-diacetoxybenzene sulfonate]	even less	inhibition of mitogenesis	–	occupy a site that is very close to the one that has been described occupied by 2,5-dihydroxybenzene sulfonic acid	probability of being tumor-free (χ2 test) versus group treated with DHBS [1]: greater probability of being tumor-free; tumor cells in apoptosis in glioma sections (hematoxylin and eosin) [5]: a large number of tumor cells in apoptosis; weight of the extracted tumor when treatment ended [6]: significant reduction; tumor growth (tumor volume measured through the skin) ([6]; started 10 days after implantation): significantly reduced
O=C(O)c1cc(O)ccc1O [2,5-dihydroxybenzoate, 2,5-dihydroxybenzoic acid]	–	–	–	–	bFGF-induced fibrosis (fibroblasts in septa of connective tissue of adipose tissue) [7]: reduces bFGF-induced fibrosis; rat glioma C6 cell proliferation, significance of the effect ([3]; 500 μM): statistically significant; rat glioma C6 cell proliferation, significance of the effect ([3]; 1000 μM): statistically significant; rat glioma C6 cell proliferation (absorbance at 595 nm) ([3]; 100, 200, 500 or 1000 μM): inhibited rat glioma C6 cell proliferation in a concentration-dependent manner
CC(=O)Oc1ccc(O)cc1S(=O)(=O)[O-].[K+] [2A-5HBS, potassium 2-acetoxy-5-hydroxybenzene sulfonate]	–	inhibition of mitogenesis	caused the inhibition of rat glioma cell proliferation	occupy a site that is very close to the one that has been described occupied by 2,5-dihydroxybenzene sulfonic acid	–

From US9248114B2, “Use of 2,5-dihydroxybenzene compounds and derivatives for the treatment of hematological dyscrasias and cancer of an organ” (Action Medicines, S.L., priority 2006, dated 2016)
